pIC50: −log10 of the molar value. Where no end group is shown, it is not given here.
Columns and labels:
Assay in all cases: biochemical
Assay type in all cases: binding
[1] = biological target: DRB3*0101 (Homo sapiens, UniProt P01903+P79483)
[2] = biological target: DRB4*0101 (Homo sapiens, UniProt P01903+P13762, G164S)
[3] = biological target: DRB5*0101 (Homo sapiens, UniProt P01903+Q30154)

Compound | pIC50 [1] | pIC50 [2] | pIC50 [3]
CC[C@H](C)[C@H](NC(=O)[C@H](CC(C)C)NC(=O)[C@H](CCC(=O)O)NC(=O)[C@H](CC(=O)O)NC(=O)[C@H](CCC(N)=O)NC(=O)[C@@H]1CCCN1C(=O)[C@H](CCCNC(=N)N)NC(=O)[C@H](CS)NC(=O)[C@@H]1CCCN1C(=O)[C@@H](NC(=O)[C@@H](NC(=O)[C@H](CC(C)C)NC(=O)[C@H](CCCCN)NC(=O)[C@H](CCCNC(=N)N)NC(=O)CNC(=O)[C@H](CC(=O)O)NC(=O)[C@@H](N)CCCCN)C(C)C)C(C)C)C(=O)O [NS5 719-735] | 5.25 | 4.75 | 5.46
CC(C)[C@H](NC(=O)[C@@H]1CCCN1C(=O)[C@@H](NC(=O)[C@H](C)NC(=O)[C@H](CO)NC(=O)[C@@H](N)CS)C(C)C)C(=O)N[C@@H](Cc1c[nH]cn1)C(=O)N[C@@H](Cc1c[nH]c2ccccc12)C(=O)N[C@H](C(=O)N1CCC[C@H]1C(=O)N[C@H](C(=O)N[C@@H](CO)C(=O)N[C@@H](CCCNC(=N)N)C(=O)N[C@H](C(=O)N[C@H](C(=O)N[C@@H](Cc1c[nH]c2ccccc12)C(=O)O)[C@@H](C)O)[C@@H](C)O)[C@@H](C)O)C(C)C [NS5 780-795] | 5.63 | 6.77 | 5.71
CC[C@H](C)[C@H](NC(=O)[C@H](CC(C)C)NC(=O)[C@H](CO)NC(=O)CNC(=O)[C@H](CS)NC(=O)[C@H](Cc1c[nH]c2ccccc12)NC(=O)[C@H](CCC(N)=O)NC(=O)[C@H](CC(=O)O)NC(=O)[C@H](CCC(=O)O)NC(=O)[C@H](CCCNC(=N)N)NC(=O)[C@H](CCCCN)NC(=O)CNC(=O)[C@H](CC(C)C)NC(=O)[C@@H](N)Cc1ccc(O)cc1)C(=O)NCC(=O)N[C@@H](CC(C)C)C(=O)N[C@H](C(=O)O)[C@@H](C)O [NS5 838-854] | 7.10 | 5.80 | 4.81
AILPEYGTLGLECSP [Envelope 171-185] | 4.90 | 6.10 | 4.76
ALTGATEIQNSGGTS [Envelope 261-275] | 4.76 | 5.07 | 5.44
GTILVKVEYKGEDAP [Envelope 316-330] | 5.28 | 5.22 | 5.28
LGSQEGAMHTALTGA [Envelope 251-265] | 5.25 | 5.14 | 6.14
LKKEVSETQHGTILV [Envelope 306-320] | 4.92 | 5.10 | 4.90
MRCVGVGNRDFVEGL [Envelope 1-15] | 5.55 | 5.42 | 5.32
TNTFVLKKEVSETQH [Envelope 301-315] | 5.55 | 5.66 | 5.31
TRGAVLTYNGKRLEP [NS3 53-67] | 5.48 | 4.94 | 6.48
VTFKNAHAKKPEVVV [Envelope 236-250] | 4.74 | 5.17 | 7.52
